One molecule from PMC9878617, “Distinct conformational changes occur within the intrinsically unstructured pro‐domain of pro‐Nerve Growth Factor in the presence of ATP and Mg^2+” (Protein Science : A Publication of the Protein Society, 2023) can be followed below.

This assay concerns the target T1, rh-proNGF (Homo sapiens, UniProt P01138).
T1 construct: gene NGF; proNGF without signal peptide; homodimer
Briefly: ITC, global fit of two titrations (SEDPHAT). It counts as binding. Conditions: read-out: Best-fit value. From the text:
ITC, global fit of two titrations (SEDPHAT) on rh-proNGF
Background: Isothermal titration calorimetry measures the heat released or taken up as one component is titrated into another.

T1 sequence (P01138 19-241): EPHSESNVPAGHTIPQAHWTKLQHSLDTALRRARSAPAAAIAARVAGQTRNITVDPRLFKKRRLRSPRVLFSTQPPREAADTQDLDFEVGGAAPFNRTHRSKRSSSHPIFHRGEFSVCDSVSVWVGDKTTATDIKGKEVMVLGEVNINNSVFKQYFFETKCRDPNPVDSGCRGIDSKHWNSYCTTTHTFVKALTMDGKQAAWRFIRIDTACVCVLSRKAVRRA

Take `Nc1ncnc2c1ncn2[C@@H]1O[C@H](COP(=O)(O)OP(=O)(O)OP(=O)(O)O)[C@@H](O)[C@H]1O` [ATP]: the Kd turned out to be 39.7 µM.
